Test results: patent US9427437B2, “Hypercholesterolemia and tendinous injuries” (The Trustees of the University of Pennsylvania, priority 2008, dated 2016)

Legend:
[1] = test system: partial rupture of achilles tendon; test: Patient case: oral rosuvastatin for a partial rupture of the achilles tendon in a hypercholesterolemic patient; format: in vivo, human; conditions: orally 10 mg once daily
Experimental: (§1) A diabetic presents with a partial rupture of their achilles tendon. Their orthopedist orders a standard lipid panel as part of their blood work. The orthopedist finds that the patient is hypercholesterolemic with a total cholesterol of 285 mg/DL. The orthopedist prescribes rosuvastatin to be taken orally at a dose of 10 mg once daily.

[2] = test system: partial tear of the patellar tendon; test: Patient case: oral atorvastatin for a partial tear of the patellar tendon in a hypercholesterolemic patient; format: in vivo, human; conditions: orally 20 mg once daily
Experimental: as §1, with “person” for “diabetic”, “tear” for “rupture”, “the patellar” for “their achilles”, “almost 300” for “285”, “atorvastatin” for “rosuvastatin”, “20” for “10”

Row | SMILES | cholesterol lowering ([1]; diabetic, total cholesterol 285 mg/DL at presentation) | recovery from partial rupture of achilles tendon ([1]; hypercholesterolemic diabetic) | recovery from partial tear of the patellar tendon ([2]; hypercholesterolemic person) | cholesterol lowering ([2]; person, total cholesterol almost 300 mg/DL at presentation)
1 | CC(C)c1nc(N(C)S(C)(=O)=O)nc(-c2ccc(F)cc2)c1/C=C/[C@@H](O)C[C@@H](O)CC(=O)O [rosuvastatin] | lowering their cholesterol to acceptable levels | markedly improved |  | 
2 | CC(C)c1c(C(=O)Nc2ccccc2)c(-c2ccccc2)c(-c2ccc(F)cc2)n1CC[C@@H](O)C[C@@H](O)CC(=O)O [atorvastatin] |  |  | markedly improved | lowering their cholesterol to acceptable levels
